Values joined by “and” are separate entries in the source; they are usually repeats but may differ in a detail not shown here. Equal entries are not always repeated. Where two headings read alike, the source gives them in different places.

The test system of one data set is Caco-2 cells. Kind of data set: MTT antiproliferation assay, Caco-2. Format: cell-based, human. The following applies: for IC50: Homo sapiens, Caco-2, 48 h, MTT; for SI values Caco-2: IC50 of non-cancerous Vero cells divided by IC50 of Caco-2. Here is the method:
Cancerous cell lines (MCF-7: human breast adenocarcinoma cells; HepG2: human hepatocellular carcinoma cells; Caco-2: human epithelial colorectal adenocarcinoma cells; A549: human epithelial lung adenocarcinoma cells), obtained from the American Type Culture Collection (ATCC) (Rockville, MD, United States of America), were cultured in Dulbecco’s Modified Eagle’s Medium (DMEM) high glucose (4.5 g/L) containing L-glutamine (4 mM) and sodium-pyruvate (Hyclone™) supplemented with 10% (v/v) fetal bovine serum (FBS) (Capricorn Scientific GmbH, South America), and incubated at 37°C with 5% CO2 in a humidified environment. African green monkey (Vero) kidney cells (also obtained from ATCC), a non-cancerous cell line, were grown in DMEM high glucose (4.5 g/L) containing L-glutamine (Lonza, Belgium) and supplemented with 5% FBS (Capricorn Scientific GmbH, South America) and 1% gentamicin (Virbac, RSA) in the same environment as cancer cells. The RAW 264.7 murine macrophage cells (obtained from ATCC) were cultured in DMEM high glucose (4.5 g/L) containing L-glutamine (Lonza, Belgium), supplemented with 10% FBS (Capricorn Scientific GmbH, South America) and 1% penicillin/streptomycin/fungizone (PSF) solution, and kept at 37°C in a 5% CO2 humidified environment.
The cancerous and non-cancerous cells were seeded at a density of 10^4 cells per well in 96-well microtiter plates, and they were incubated overnight at 37°C with 5% CO2 in a 5% CO2 humidified environment in order to allow the attachment of cells at the bottom of the plates. Then, the cells were exposed to increasing concentrations of compounds (100, 50, 25, 10 and 5 μg/mL) dissolved in dimethyl sulfoxide (DMSO) and further diluted in fresh culture medium. In this assay, the final concentration of DMSO in the culture medium was 0.5% used as negative control while doxorubicin hydrochloride (Pfizer, United States of America) was used as a positive control. The culture plates were incubated for 48 h at 37°C in a 5% CO2 humidified environment, after which the culture medium was discarded, and replaced by 200 µL of fresh culture medium with 30 µL of 3-(4,5-dimethylthiazol-2-yl)-2,5-diphenyl-2H-tetrazolium bromide (MTT) (5 mg/mL) dissolved in phosphate buffered saline ([Mosmann, 1983]). After 4 h of incubation, the medium was gently removed, and the formazan crystals were solubilized in 50 µL of DMSO. The absorbance was measured at 570 nm after shaking for 1 min on a microplate reader (Synergy Multi-Mode Reader, BioTek, Winooski, United States of America).
The cell viability rate was determined at each concentration of the compound as a percentage of cells treated with DMSO at 0.5% used as negative control. […] The selectivity index (Supporting Material) values were calculated for each compound by dividing the IC50 of non-cancerous cells by the IC50 of cancerous cells in the same units ([Mfotie Njoya et al., 2018]; [Mfotie Njoya et al., 2020]).
For orientation: Formazan colour is commonly taken as a measure of viable cells.

The target of the next data set is T1, 15-LOX (Glycine max, UniProt P08170).
T1 construct: purchased Merck, Darmstadt, Germany
T1 sequence (P08170 1-839): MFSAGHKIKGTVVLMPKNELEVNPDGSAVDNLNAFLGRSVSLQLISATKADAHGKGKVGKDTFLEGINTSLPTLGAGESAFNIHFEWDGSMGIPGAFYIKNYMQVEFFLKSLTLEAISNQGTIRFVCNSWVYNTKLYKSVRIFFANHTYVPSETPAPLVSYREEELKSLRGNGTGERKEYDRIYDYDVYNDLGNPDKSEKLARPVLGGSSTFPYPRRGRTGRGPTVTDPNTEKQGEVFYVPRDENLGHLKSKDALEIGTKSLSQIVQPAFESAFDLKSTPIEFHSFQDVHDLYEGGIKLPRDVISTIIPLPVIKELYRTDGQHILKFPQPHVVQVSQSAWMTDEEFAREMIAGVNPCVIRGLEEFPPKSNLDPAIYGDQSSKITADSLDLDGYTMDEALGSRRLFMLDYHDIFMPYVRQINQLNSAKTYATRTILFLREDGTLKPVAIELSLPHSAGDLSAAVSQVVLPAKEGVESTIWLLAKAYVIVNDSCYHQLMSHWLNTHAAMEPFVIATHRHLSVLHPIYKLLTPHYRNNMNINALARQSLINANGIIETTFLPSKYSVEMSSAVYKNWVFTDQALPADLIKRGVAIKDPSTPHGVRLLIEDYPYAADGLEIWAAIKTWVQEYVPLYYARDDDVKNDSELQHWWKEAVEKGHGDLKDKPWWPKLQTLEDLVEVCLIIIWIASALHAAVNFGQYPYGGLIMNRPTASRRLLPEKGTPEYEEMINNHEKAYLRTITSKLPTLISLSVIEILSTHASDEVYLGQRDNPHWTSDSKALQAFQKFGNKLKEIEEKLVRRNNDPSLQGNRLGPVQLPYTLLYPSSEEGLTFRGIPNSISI
Kind of data set: Soybean 15-LOX inhibitory assay (FOX). In kind it is biochemical. The following applies: linoleic acid 140 μM, pH 7.4, 25°C. The method, then: This assay is based on the formation of the Fe^3+/xylenol orange (FOX) complex with maximal absorption at 560 nm ([Pinto et al., 2007]). Forty microliters of 15-LOX (final concentration: 200 UI/mL) from Glycine max (Merck, Darmstadt, Germany) was incubated with 20 µL of tested samples (100, 50, 25, 10, and 5 μg/mL) at 25°C for 5 min, with DMSO at 10% (v/v) being used as negative control. Thereafter, 40 µL of linoleic acid (final concentration, 140 μM) prepared in Tris-HCl buffer (50 mM, pH 7.4) was added, and the plates were further incubated at 25°C for 20 min in the dark. The assay was terminated by adding 100 μL of FOX reagent [sulfuric acid (30 mM), xylenol orange (100 μM), ferrous II) sulfate (100 μM), dissolved in methanol/water (9:1)], followed by the incubation of the plates at 25°C for 30 min in the dark. Finally, the absorbance was measured at 560 nm on a microplate reader (Epoch, BioTek, Winooski, United States of America). The blanks were made in the same way as tested samples except that the substrate was added after the FOX reagent. The 15-LOX inhibitory activity was calculated by using the following formula: 15−LOX inhibitory activity %=100−Abs sample−Abs blank/Abs negative control−Abs blank×100 (1)

Where [1] appears, read: read-out: IC50 values 15-LOX (converted).

With `CC1(C)CC[C@]2(C(=O)O)CC[C@]3(C)C(=CC[C@@H]4[C@@]5(C)CC[C@H](O)[C@@](C)(CO)[C@@H]5CC[C@]43C)[C@@H]2C1` [Compound 2, hederagenin], in the data set on Caco-2 cells, the IC50 is 36.7 µg/mL and 77.6 µM; the “SI values Caco-2” value amounted to 1.24. Besides, the IC50 at 15-LOX (IC50 values 15-LOX) was 28.4 µM and 28.2 µM.

As to `C[C@@H]1CC[C@]2(C(=O)O)CC[C@]3(C(=O)O)C(=CCC4[C@@]5(C)CC[C@H](O[C@H]6O[C@H](C)[C@@H](O)[C@H](O)[C@H]6O)C(C)(C)C5CC[C@]43C)C2[C@H]1C` (stereo partly drawn) [Compound 6, quinovic acid 3-O-[α-D-quinovopyranoside]], in the data set on Caco-2 cells, the concentration for half-maximal inhibition (IC50) is 7.41 µg/mL and 11.7 µM; the “SI values Caco-2” value stood at 0.83. For the same molecule, at 15-LOX (setting [1]), the IC50 was > 158 µM.

In the case of `C[C@@H]1CC[C@]2(C(=O)O)CC[C@]3(C(=O)O)C(=CCC4[C@@]5(C)CC[C@H](O[C@@H]6O[C@H](C)[C@@H](O)[C@H](O)[C@H]6O)C(C)(C)C5CC[C@]43C)C2[C@H]1C` (stereo partly drawn) [Compound 9, quinovic acid 3-O-[β-D-quinovopyranoside]], in the data set with Caco-2 cells, the IC50 was 53.7 µg/mL and 84.8 µM; the “SI values Caco-2” value is listed as 0.88. Also, the IC50 at 15-LOX (setting [1]) is 118 µM.

Take `C[C@]12COCC=C1C[C@H]1c3[nH]c4ccccc4c3CCN1C2=O` [Compound 10, latifoliamide C]: in the data set on Caco-2 cells, the IC50 is 63.2 µg/mL and 205 µM; the “SI values Caco-2” value was determined as 1.04. Further, the IC50 on 15-LOX (setting [1]) is 253 µM.

By IC50 is commonly meant the concentration that inhibits the measured activity by half.

The record behind these values is article PMC10320002, “In vitro antiproliferative, anti-inflammatory effects and molecular docking studies of natural compounds isolated from Sarcocephalus pobeguinii (Hua ex Pobég)” (Frontiers in Pharmacology, 2023).
